# Assay results: patent US11925662B2, “Compositions and methods of enhancing anti-tumor response using hybrid neutrophils” (THE TRUSTEES OF THE UNIVERSITY OF PENNSYLVANIA, priority 2015, dated 2024)
# Legend:
# [1] = system: bone marrow neutrophils (BMNs); assay: Differentiation of BMNs into HLA-DR+CD14+ hybrid neutrophils (flow cytometry); format: cell-based, human; settings: for induction of the CD14+HLA-DR+ hybrid phenotype in BMNs: single factor at the low concentrations found in the TCMs
# Method: Generation of BM-Derived Hybrid and Canonical Neutrophils. To differentiate BMNs into cells that resemble canonical TANs, purified long-lived BMNs were cultured for 7 days with a TCM (50% v/v) collected from a patient's tumor digest where a large number of hybrid TANs were previously unable to be identified by flow cytometry. […] Alternatively, hybrid-neutrophils were differentiated from BMNs with low doses IFN-γ (50 pg/ml) and GM-CSF (50 pg/ml) for 7 days. If it was observed that the formation of hybrid BMNs was less than 80% the HLA-DR+CD14+ hybrid cells from TCM treated BMNs were enriched by positive selection using magnetic beads coated with anti-HLA-DR antibodies or by flow cytometric cell sorting. The proliferation of BMNs during the differentiation was assessed by flow cytometry using BrdU Flow Kit (BD Pharmingen). BMNs were exposed to bromo-deoxyuridine for 6 hours.
# To test the effect of hypoxia on hybrid neutrophil formation, BMNs were cultured for 6 days under normoxic and hypoxic culture conditions maintained in a 37° C. incubator containing 5% CO2, and either atmospheric 21% O2 or 5% O2 condition (Hypoxia Incubator Chamber, Stemcell Techology). BMNs were also cultured in the presence of hybrid-inducing TCM and cobalt chloride (25 μM) (MP Biomedicals LLC), an agent that induces the hypoxia-inducible factor-1α, the main transcriptional factor activated in hypoxic conditions.
# Flow Cytometry. Flow cytometric analysis was performed according to standard protocols. Negative gating was based on a fluorescence minus one (FMO) strategy. To exclude dead cells from analysis, cells were stained with the Fixable Viability Dye eFluor® 450 (ebioscience), LIVE/DEAD® fixable dead cell stains (Molecular probes, Life Technologies), or Zombie Yellow™ Fixable Viability dye (Biolegend). To distinguish early-stage apoptotic and late-stage apoptotic/necrotic cells, cells were first stained with Fixable Viability Dye eFluor® 660 (eBioscience). Then cells were washed with the AnnexinV-Binding Buffer and stained with anti-AnnexinV Abs (FITC) in the AnnexinV-Binding Buffer for 10 min at RT. Cells were washed and analyzed by flow cytometry.
# (§1) For phenotypic and functional analysis PBNs, BMNs, and TANs were gated on live CD11b^+CD15^hiCD66b^+ cells. […] All data were acquired using the BD FACSCalibur or BD LSRFortessa™ (BD Bioscience) flow cytometers and analyzed using FlowJo software (TreeStar Inc.).
# human Ikaros proteins = settings: literature (Kronke et al., 2014); cited from earlier work
# PD-L1 = PD-L1 expression on HLA-DR+ BMNs (flow cytometry); format: cell-based, human; settings: IFN-γ at more than 1 ng/ml, with GM-CSF 50 pg/ml
# Excerpt: FIGS. 16A-16F are a series of graphs showing tumor-derived IFN-γ and GM-SCF synergistically differentiate immature neutrophils into a subset of APC-like hybrid neutrophils. […] FIGS. 16E-16F show levels of IFN-γ (FIG. 16E) and GM-CSF (FIG. 16F) in supernatants collected from the cell culture of small-sized tumor digests where APC-like hybrid TANs were or were not previously detected (set-off was >10% among all TANs) (line represents mean±SEM, n=10, Mann-Whitney test for unpaired data). Lower panels represent the correlation between the absolute levels of IFN-γ and GM-CSF in the TCM, with the frequency of hybrid neutrophils in each tumor shown in the upper graphs. Non-parametric Spearman test was used to determine the degree of correlation. Representative dot plots from one of five experiments are shown in (FIG. 16A-16D).
# as §1
compound,measurement,setting,value
[Cl][Co][Cl] [cobalt chloride],development of hybrid CD14+HLA-DR+ neutrophils,"[1]; with hybrid-inducing TCM, cobalt chloride 25 μM (hypoxia-simulating), 6 days",profoundly inhibited
Nc1cccc2c1CN(C1CCC(=O)NC1=O)C2=O (stereo not drawn) [lenalidomide],effect on Ikaros proteins,human Ikaros proteins,causes proteasomal degradation of the human Ikaros proteins
same,development of HLA-DR+CD14+ hybrid neutrophils,"[1]; lenalidomide added to BM neutrophils treated with hybrid-inducing TCM (30% v/v), 6 days",dramatically facilitated
GM-CSF: Human recombinant GM-CSF purchased from PeproTech,induction of the CD14+HLA-DR+ hybrid phenotype in BMNs,[1],"able to induce the phenotype, although in a relatively low percentage of cells"
IFN-γ: Human recombinant IFN-γ purchased from PeproTech,expression of PD-L1 on the HLA-DR+ BMNs,PD-L1,gradually induced the expression of PD-L1
same,induction of the CD14+HLA-DR+ hybrid phenotype in BMNs,[1],"able to induce the phenotype, although in a relatively low percentage of cells"
